Data as given in patent US7501430B2 (ArQule, Inc., priority 2006, dated 2009).
Like-named read-outs stand apart in the source and are kept apart here.

Assays:
[1] = target: T1, mutant B-RAF (Homo sapiens, UniProt P15056, V600E); test: RAF biochemical assay (MEK-1 phosphorylation, anti-phospho MEK1/2 detection)
T1 construct: purchased Upstate (Charlottesville, Va.)
Summary of the method: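 Detection is by ELISA: after a 30 min room-temperature reaction, plate-captured GST-MEK-1 is probed with anti-phospho MEK1/2, then an AP-tagged secondary antibody with fluorescent Attophos read-out.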

[2] = tested on: SK-MEL-28 human melanoma cell line (B-RAF V600E); test: MTS cell growth assay, SK-MEL-28; type: cell-based; details: SKMEL28 cells, 72 hours
Source text: (§1) Compounds of the present invention have been tested for activity against a variety of cancer cell lines. The ability of compounds to inhibit cell growth in this assay is correlated with the reduction of dehydrogenase enzyme activity found in metabolically active cells.
(§2) Materials: A375 (a human melanoma cell line that harbors the B-RAF mutation V600E), Colo-205 (a human colon cancer cell line that harbors the B-RAF mutation V600E), DLD1 (a human colon cancer cell line that harbors the K-ras mutation G13D), SK-MEL-2 (a human melanoma cell line that harbors the N-ras mutation Q61R), SK-MEL-28 (a human melanoma cell line that harbors the B-RAF mutation V600E), and SW480 (a human colon cancer cell line that harbors the K-ras mutation G12V) cells from ATCC were maintained at 37° C., 5% CO2 in DMEM media supplemented with 10% fetal bovine serum, penicillin/streptomycin and fungizone (Invitrogen). NCM460 (Incell), a normal colon epithelial cell line, and human mammary epithelial cells (Cambrex) were maintained at 37° C., 5% CO2 in DMEM and HEBM media (Cambrex), respectively.
(§3) Methods: Test compounds were dissolved and diluted to 300× in DMSO then diluted 1:40 in DMEM. Cells were seeded into 96-well tissue culture plates at 2-5×10^3 per well and cultured at 37° C. for 24 h. Cells were incubated with test compounds for 72 hours followed by incubation with tetrazolium compound (3-(4,5-dimethylthiazol-2-yl)-5-(3-carboxymethoxyphenyl)-2-(4-sulfophenyl)-2H-tetrazolium, inner salt; MTS) and the electron coupling reagent, phenazine methosulfate (PMS) for 4 hr. […] The measurement of the absorbance of the formazan was assessed using an ENVISION™ (Perkin Elmer) microplate reader at 492 nm. The calculated IC50 value is the concentration of the test compound that causes a 50% decrease in the absorbance.

[3] = tested on: SK-MEL-2 human melanoma cell line (N-ras Q61R); test: MTS cell growth assay, SK-MEL-2; type: cell-based; details: SKMEL2 cells, 72 hours, read-out: IC50 SKMEL2 NRAS (Q61R)
Source text: as §1, §2, §3

[4] = tested on: human mammary epithelial cells (HMEC, normal); test: MTS cell growth assay, HMEC; type: cell-based; details: 72 hours
Source text: as §1, §2, §3

[5] = tested on: DLD1 human colon cancer cell line (K-ras G13D); test: MTS cell growth assay, DLD1; type: cell-based; details: DLD-1, DLD1 cells, 72 hours, read-out: IC50 DLD1 KRAS (G13D)
Source text: as §1, §2, §3

[6] = tested on: SW480 human colon cancer cell line (K-ras G12V); test: MTS cell growth assay, SW480; type: cell-based; details: SW480 cells, 72 hours, read-out: IC50 SW480 KRAS (G12V)
Source text: as §1, §2, §3

[7] = tested on: Colo-205 human colon cancer cell line (B-RAF V600E); test: MTS cell growth assay, Colo-205; type: cell-based; details: Colo205 cells, 72 hours
Source text: as §1, §2, §3

[8] = tested on: NCM460 normal colon epithelial cell line; test: MTS cell growth assay, NCM460; type: cell-based; details: Homo sapiens, NCM460 normal cells, 72 hours
Source text: as §1, §2, §3

[9] = tested on: A375 human melanoma cell line (B-RAF V600E); test: MTS cell growth assay, A375; type: cell-based; details: A-375, A375 cells, 72 hours
Source text: as §1, §2, §3

[10] = read-out: Mutant B-RAF IC50 (uM) or % inhibition

T1 sequence (P15056 whole entry V600E): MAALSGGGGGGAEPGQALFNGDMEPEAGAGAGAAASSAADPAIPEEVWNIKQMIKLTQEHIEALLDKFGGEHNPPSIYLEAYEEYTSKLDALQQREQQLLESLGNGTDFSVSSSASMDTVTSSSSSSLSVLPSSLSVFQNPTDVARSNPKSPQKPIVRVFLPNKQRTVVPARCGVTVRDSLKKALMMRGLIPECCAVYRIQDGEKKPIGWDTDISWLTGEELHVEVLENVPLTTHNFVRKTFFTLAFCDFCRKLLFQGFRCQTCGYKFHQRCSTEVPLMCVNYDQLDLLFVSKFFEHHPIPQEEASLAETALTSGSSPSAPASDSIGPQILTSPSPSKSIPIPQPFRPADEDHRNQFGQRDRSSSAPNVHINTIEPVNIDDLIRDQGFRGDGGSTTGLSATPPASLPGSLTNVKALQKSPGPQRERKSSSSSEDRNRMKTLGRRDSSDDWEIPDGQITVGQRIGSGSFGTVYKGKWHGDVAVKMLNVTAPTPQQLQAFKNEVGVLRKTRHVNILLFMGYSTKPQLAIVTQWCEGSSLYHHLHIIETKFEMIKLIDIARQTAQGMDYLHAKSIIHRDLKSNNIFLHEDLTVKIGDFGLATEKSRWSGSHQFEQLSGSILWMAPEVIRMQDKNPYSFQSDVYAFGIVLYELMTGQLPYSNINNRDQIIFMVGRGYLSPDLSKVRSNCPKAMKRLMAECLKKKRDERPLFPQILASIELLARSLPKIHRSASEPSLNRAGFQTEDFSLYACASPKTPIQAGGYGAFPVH

| Structure (SMILES) | IC50 ([1]; read-out: Mutant B-RAF IC50) [µM] | IC50 [2] [nM] | IC50 [3] [nM] | IC50 [4] [nM] | IC50 [5] [nM] | IC50 [6] [nM] | IC50 [7] [nM] | IC50 [8] [nM] | IC50 [9] [nM] | IC50 [1, 10] [µM] |
| --- | --- | --- | --- | --- | --- | --- | --- | --- | --- | --- |
| COc1ccccc1-c1nc2sccn2c1-c1ccnc(N[C@@H]2CCCN(S(=O)(=O)c3ccc(Cl)cc3)C2)n1 [Example 105, N-{(3R)-1-[(4-chlorophenyl)sulfonyl]piperidin-3-yl}-4-[6-(2-methoxyphenyl)imidazo[2,1-b][1,3]thiazol-5-yl]pyrimidin-2-amine] | 0.25 | 480 | 1100 | 2720 | 4730 | 1280 | 380 | 6680 | 310 | – |
| COc1cccc(-c2nc3sccn3c2-c2ccnc(N[C@@H]3CCCN(C(=O)c4ccncc4)C3)n2)c1 [Example 112, N-[(3R)-1-isonicotinoylpiper-idin-3-yl]-4-[6-(3-methoxyphenyl)imidazo[2,1-b][1,3]thiazol-5-yl]pyrimidin-2-amine] | > 5 | 860 | 910 | 2240 | 3330 | 2740 | 330 | 4710 | 270 | – |
| O=S(=O)(c1ccc(Cl)cc1)N1CCC(Nc2nccc(-c3c(-c4cccc(O)c4)nc4sccn34)n2)CC1 [Example 267, 3-{5-[2-({1-[(4-chlorophenyl)sulfonyl]piperidin-4-yl}amino)pyrimidin-4-yl]imidazo[2,1-b][1,3]thiazol-6-yl}phenol] | 0.031 | 380 | 870 | 1070 | 1760 | 2130 | 190 | 2050 | 270 | – |
| CCNC(=O)N1CCC(Nc2nccc(-c3c(-c4cccc(O)c4)nc4sccn34)n2)CC1 [Example 268, N-ethyl-4-({4-[6-(3-hydroxyphenyl)imidazo[2,1-b][1,3]thiazol-5-yl]pyrimidin-2-yl}amino)piperidine-1-carboxamide] | 0.009 | 800 | 1330 | 720 | 4030 | 4400 | 360 | 2540 | 370 | – |
| O=C(c1ccc(F)cc1)N1CCC(Nc2nccc(-c3c(-c4ccc(F)cc4)nc4sccn34)n2)CC1 [Example 289, N-[1-(4-fluorobenzoyl)piperidin-4-yl]-4-[6-(4-fluorophenyl)imidazo[2,1-b][1,3]thiazol-5-yl]pyrimidin-2-amine] | > 10 | 670 | 990 | 1240 | 3080 | 2970 | 180 | 4170 | 150 | – |
| O=Cc1cccc(-c2nc3sccn3c2-c2ccnc(N[C@@H]3CCCN(S(=O)(=O)c4ccc(Cl)cc4)C3)n2)c1 [Example 390, 3-{5-[2-({(3R)-1-[(4-chlorophenyl)sulfonyl]piperidin-3-yl}amino)pyrimidin-4-yl]imidazo[2,1-b][1,3]thiazol-6-yl}benzaldehyde] | 0.28 | – | – | – | – | – | – | – | – | – |
| O=S(=O)(Cc1ccccc1)N1CCC[C@@H](Nc2nccc(-c3c(-c4cccc(O)c4)nc4occn34)n2)C1 [Example 391, 3-[5-(2-{[(3R)-1-(benzylsulfonyl)piperidin-3-yl]amino}pyrimidin-4-yl)imidazo[2,1-b][1,3]oxazol-6-yl]phenol] | > 3 | – | – | – | – | – | – | – | – | – |
| O=S(=O)(c1ccc(Cl)cc1)N1CCC[C@@H](Nc2nccc(-c3c(-c4ccc(/C=N/O)cc4)nc4sccn34)n2)C1 [Example 392, 4-{5-[2-({(3R)-1-[(4-chlorophenyl)sulfonyl]piperidin-3-yl}amino)pyrimidin-4-yl]imidazo[2,1-b][1,3]thiazol-6-yl}benzaldehyde oxime] | 0.698 | – | – | – | – | – | – | – | – | – |
| CCCS(=O)(=O)N1CCC[C@@H](Nc2nccc(-c3c(-c4cccc(O)c4)nc4occn34)n2)C1 [Example 393, 3-[5-(2-{[(3R)-1-(propylsulfonyl)piperidin-3-yl]amino}pyrimidin-4-yl)imidazo[2,1-b][1,3]oxazol-6-yl]phenol] | 0.33 | – | – | – | – | – | – | – | – | – |
| COC(=O)N1CCC(Nc2nccc(-c3c(-c4cccc(O)c4)nc4sccn34)n2)CC1 [Example 394, methyl 4-({4-[6-(3-hydroxyphenyl)imidazo[2,1-b][1,3]thiazol-5-yl]pyrimidin-2-yl}amino)piperidine-1-carboxylate] | > 3 | – | – | – | – | – | – | – | – | – |
| O=S(=O)(c1ccc(Cl)cc1)N1CCC[C@@H](Nc2nccc(-c3c(-c4cccc(/C=N\O)c4)nc4sccn34)n2)C1 [Example 395, 3-{5-[2-({(3R)-1-[(4-chlorophenyl)sulfonyl]piperidin-3-yl}amino)pyrimidin-4-yl]imidazo[2,1-b][1,3]thiazol-6-yl}benzaldehyde oxime] | 0.018 | – | – | – | – | – | – | – | – | – |
| O=S(=O)(c1ccc(Cl)cc1)N1CCC[C@@H](Nc2nccc(-c3c(-c4cccc(CO)c4)nc4sccn34)n2)C1 [Example 396, (3-{5-[2-({(3R)-1-[(4-chlorophenyl)sulfonyl]piperidin-3-yl}amino)pyrimidin-4-yl]imidazo[2,1-b][1,3]thiazol-6-yl}phenyl)methanol] | 1.6 | – | – | – | – | – | – | – | – | – |
| O=S(=O)(C1CC1)N1CCC[C@@H](Nc2nccc(-c3c(-c4cccc(O)c4)nc4occn34)n2)C1 [Example 397, 3-[5-(2-{[(3R)-1-(cyclopropylsulfonyl)piperidin-3-yl]amino}pyrimidin-4-yl)imidazo[2,1-b][1,3]oxazol-6-yl]phenol] | – | – | – | – | – | – | – | – | – | 2.3 |
| O=S(=O)(c1ccccc1)N1CCC[C@@H](Nc2nccc(-c3c(-c4cccc(O)c4)nc4occn34)n2)C1 [Example 398, 3-[5-(2-{[(3R)-1-(phenylsulfonyl)piperidin-3-yl]amino}pyrimidin-4-yl)imidazo[2,1-b][1,3]oxazol-6-yl]phenol] | – | – | – | – | – | – | – | – | – | 0.042 |
| O=S(=O)(c1ccsc1)N1CCC[C@@H](Nc2nccc(-c3c(-c4cccc(O)c4)nc4occn34)n2)C1 [Example 399, 3-[5-(2-{[(3R)-1-(3-thienylsulfonyl)piperidin-3-yl]amino}pyrimidin-4-yl)imidazo[2,1-b][1,3]oxazol-6-yl]phenol] | – | – | – | – | – | – | – | – | – | > 3 |
| CC(=O)c1ccc(-c2nc3sccn3c2-c2ccnc(N[C@@H]3CCCN(S(=O)(=O)c4ccc(Cl)cc4)C3)n2)cc1 [Example 400, 1-(4-{5-[2-({(3R)-1-[(4-chlorophenyl)sulfonyl]piperidin-3-yl}amino)pyrimidin-4-yl]imidazo[2,1-b][1,3]thiazol-6-yl}phenyl)ethanone] | – | – | – | – | – | – | – | – | – | 1.3 |
